≈ marks a conversion by molar mass, not a printed value. Where “and” joins values, the source holds several entries; their conditions need not be identical. Equal values may be shown once. Read-outs that look alike come from different tables or passages of the source. Marks after values point to notes of the source that are not given here.
Experiments:
[1] = system: artemisinin-resistant P. falciparum isolate from Cambodia; test: Ring-stage survival assay (RSA0-3h); type: cell-based; conditions: for RSA values ± SEM (survival): 6 h exposure, 66 h post-treatment
Protocol: Agents Chemother. 57:914-923), but with a few modifications in the drug washing procedure to ensure that no residual peroxide was present during the 66 h post-treatment period. Briefly, 0-3 h post-invasion ring stages were adjusted to 1% parasitemia and 2.5% haematocrit by adding uninfected erythrocytes, transferred in a total volume of 1 mL into 48-well plates and exposed for 6 h to a range of concentrations ([…]) of DHA or one of the compounds tested in this study. After 6 h, cultures were transferred to 15 mL conical tubes, centrifuged at 1400 rpm (400 g) for 2 min and carefully washed 2 times with 12 mL of culture medium. […] After washing, blood pellets were resuspended in complete compound-free culture medium, transferred into new wells and cultured for 66 h in standard conditions. Table 8 below presents the Ring-stage survival assay (RSA) values as tested in Wells et al., 2015, supra for compounds of the invention and comparative compounds.

[2] = system: chloroquine-resistant (K1) strain of P. falciparum; test: In vitro antimalarial activity, K1 strain; type: cell-based
Protocol: (§1) The ability of dispiro 1,2,4-trioxolane derivatives according to the invention to show antimalarial efficacy in vitro and in vivo was tested as described in Charman, et al, 2011, PNAS, 108, 4400-4405 against chloroquine-resistant (K1) and chloroquine-sensitive (NF54) strains of P. falciparum in vitro (Vennerstrom et al. 2004, Nature, 430, 900-904).
(§2) The in vivo activity is shown in P. berghei (Pb) infected mice in terms of the percentage of inhibition of parasitemia following compound administration and the number of survival days.

[3] = Solubility in biorelevant media; type: physicochemical; conditions: PBS, pH 7.4
[4] = system: chloroquine-sensitive (NF54) strain of P. falciparum; test: In vitro antimalarial activity, NF54 strain; type: cell-based
Protocol: as §1, §2

[5] = system: P. berghei; test: In vivo activity in P. berghei (Pb) infected mice
Protocol: as §1, §2

[6] = Solubility in biorelevant media; type: physicochemical
Protocol: Compounds were each accurately weighed into individual screw cap polypropylene tubes and media added to give a nominal minimum target compound concentration of 2.2 mg/mL. Samples were vortex mixed and placed in a 37° C. incubator where they were continually mixed on an orbital shaker (IKA® VXR basic Vibrax® orbital shaker) at 600 rpm. Incubation times were 1 hour for fasted state simulated gastric fluid (FaSSGF) and 5 hours for fasted and fed state simulated intestinal fluids (FaSSIF-V2 and FeSSIF-V2 respectively). Sampling was carried out by centrifuging each sample at 10,000 rpm for 3 minutes, transferring 300 μL, aliquots into fresh Eppendorf tubes and centrifuging these tubes again at 10,000 rpm for 3 minutes. Triplicate aliquots of each final supernatant were diluted 20-fold in 50% aqueous methanol, and then further diluted in 50% aqueous acetonitrile to be within an appropriate concentration range for analysis by LC-MS. LC-MS methods and validation data for the analysis of solubility samples are shown in Table 2 below and the media composition is shown in Table 3.

[7] = CLint, H; type: in vitro ADME, human; conditions: H (first of H, D, R, M)
[8] = CLint, D; type: in vitro ADME, dog; conditions: D (second of H, D, R, M)
[9] = CLint, R; type: in vitro ADME, rat; conditions: R (third of H, D, R, M)
[10] = system: CYP isoforms (1A2, 2B6, 2C8, 2C9, 2C19, 2D6, 3A4/5); test: Time-dependent CYP inhibition (IC50 shift), CYP isoforms; type: in vitro ADME; conditions: human liver microsomes, 30 min pre-incubation with or without NADPH
Protocol: Time-dependent CYP inhibition can occur as a result of irreversible interactions of a test compound with a CYP450 enzyme (i.e. mechanism-based inhibition; MBI) or, alternatively, by reversible product inhibition (i.e. whereby the metabolite of the test compound is responsible for inhibition of the CYP). The potential for time-dependent CYP inhibition was assessed using CYP-specific metabolic pathways in human liver microsomes by measuring the formation of metabolites known to be formed by individual CYP isoforms (Table 5) according to the following protocol (probe substrates, metabolites and incubation times):
The assessment of time-dependent inhibition was based on measurement of the “IC50 shift”, whereby the IC50 was measured following pre-incubation of test compound (or reference inhibitor) in the absence or presence of NADPH. A 10-fold dilution step was incorporated following the pre-incubation to minimize reversible product inhibition (by potential metabolites of test compound) such that evidence of time-dependent inhibition is more likely to reflect mechanism-based inhibition. The maximum concentration of test compound in the pre-incubation mixture (containing either 1 or 2 mg/mL microsomal protein and 1.0% v/v DMSO) was 200 μM, and the potential for precipitation of test compound was closely monitored at the time of spiking. […]

[11] = CLint, M; type: in vitro ADME, mouse; conditions: M (fourth of H, D, R, M)
[12] = system: 7 CYP isoforms (1A2, 2B6, 2C8, 2C9, 2C19, 2D6, 3A4/5); test: Cyp inhibition IC50, 7 isoforms, human liver microsomes; type: in vitro ADME
Protocol: The assessment of time-dependent inhibition was based on measurement of the “IC50 shift”, whereby the IC50 was measured following pre-incubation of test compound (or reference inhibitor) in the absence or presence of NADPH. A 10-fold dilution step was incorporated following the pre-incubation to minimize reversible product inhibition (by potential metabolites of test compound) such that evidence of time-dependent inhibition is more likely to reflect mechanism-based inhibition. The maximum concentration of test compound in the pre-incubation mixture (containing either 1 or 2 mg/mL microsomal protein and 1.0% v/v DMSO) was 200 μM, and the potential for precipitation of test compound was closely monitored at the time of spiking. […] On this basis, it is assumed that test compounds were fully dissolved at all concentrations in the pre-incubation mixtures. Reference inhibitors (both mechanism-based and reversible inhibitors) were included to validate the assay. […]

| SMILES | RSA values ± SEM (survival) ([1]; 49 nM) | RSA values ± SEM (survival) ([1]; 88 nM) [%] | RSA values ± SEM (survival) ([1]; 175 nM) [%] | RSA values ± SEM (survival) ([1]; 350 nM) [%] | RSA values ± SEM (survival) ([1]; 700 nM) | IC50 K1 [2] [ng/mL] | Conc. (solubility) [3] | IC50 NF54 [4] [ng/mL] | % activity (percentage of inhibition of parasitemia) ([5]; Pb 1 × 10 mg/kg) [%] | Survival days ([5]; Pb 1 × 10 mg/kg) [days] | % activity (percentage of inhibition of parasitemia) ([5]; Pb 1 × 30 mg/kg) [%] | Survival days ([5]; Pb 1 × 30 mg/kg) [days] | Conc. (solubility) ([6]; FaSSGF, 37° C., 1 hour) [µg/mL] | Conc. (solubility) ([6]; FaSSIF-V2, 37° C., 5 hours) [µg/mL] | Conc. (solubility) ([6]; FeSSIF-V2, 37° C., 5 hours) [µg/mL] | other results |
| --- | --- | --- | --- | --- | --- | --- | --- | --- | --- | --- | --- | --- | --- | --- | --- | --- |
| CC1(C)CC(O)(COc2ccc([C@H]3CC[C@]4(CC3)OOC3(O4)C4CC5CC(C4)CC3C5)cc2)CC(C)(C)N1 (stereo partly drawn) [Compound (1), cis-Adamantane-2-spiro-3′-8′-[4′-[(4′-hydroxy-2′,2′,6′,6′-tetramethyl-4′-piperidinyl)methoxy]phenyl]-1′,2′,4′-trioxaspiro[4.5]decane] | 1.29 ± 1.24% | 0.16 ± 0.23 | 0.11 ± 0.08 | 0 | 0% | 1.2 (≈ 0.00228 µM) | 10.6 µg/mL | 0.9 (≈ 0.00171 µM) | 99.1 | 13.6 | 99.6 | >30 | 10.1 | 1516 | >2000 |  |
| c1cc(C2CCC3(CC2)OOC2(O3)C3CC4CC(C3)CC2C4)ccc1OCCC1CCNCC1 (stereo not drawn) [Compound (2), cis-Adamantane-2-spiro-3′-8′-[4′-[2′-(4′-piperidinyl)ethoxy]phenyl]-1′,2′,4′-trioxaspiro [4.5]decane] | 0.76 ± 0.60% | 0 | 0 | 0 | 0% | 1.4 (≈ 0.00299 µM) | <1^c μg/mL | 1.4 (≈ 0.00299 µM) | 99.4 | 13.4 | 99.5 | >30 | 5.6 | 293 | 1632 | growth of the artemisinin-resistant isolate ([1]; 700, 350, 175 and 88 nM): completely inhibiting the growth; CLint H [7]: < 7 µL/min/mg; CLint D [8]: 9 µL/min/mg; CLint R [9]: < 7 µL/min/mg; Time Dependent Inhibition [10]: none; CLint M [11]: 16 µL/min/mg; IC50 [12]: > 20 µM |
| c1cc([C@H]2CC[C@]3(CC2)OO[C@]2(O3)C3CC4CC(C3)CC2C4)ccc1OCCN1CCOCC1 [Compound C1, reference compound] |  | 0.93 ± 0.93 | 0.73 ± 1.03 | 0.73 ± 1.03 | 0.73 ± 1.03% |  |  |  | 99.5 | 15.2 | 98.1 | >30 | 79.0 | 40.6 | 563 | IC50 ([4]; Plasmodium falciparum): 2 ng/mL (≈ 0.00426 µM); solubility at 1 h ([6]; fasted state simulated gastric fluid (FaSSGF), 37 °C, fassgf or other biorelevant, thermodynamic from solid, FaSSGF, 37° C., 1 hour, read-out: Conc. (solubility)): 51.9 µg/mL (≈ 111 µM); solubility at 5 h ([6]; fasted state simulated intestinal fluid (FaSSIF-V2), 37 °C, fassif, thermodynamic from solid, FaSSIF-V2, 37° C., 5 hours, read-out: Conc. (solubility)): 22.3 µg/mL (≈ 47.5 µM); solubility at 5 h ([6]; fed state simulated intestinal fluid (FeSSIF-V2), 37 °C, fessif, thermodynamic from solid, FeSSIF-V2, 37° C., 5 hours, read-out: Conc. (solubility)): 557 µg/mL (≈ 1190 µM) |
| C[C@H]1[C@@H](O)O[C@@H]2O[C@@]3(C)CC[C@H]4[C@H](C)CC[C@@H]1[C@@]24OO3 [DHA, Dihydroartemisinin, reference compound] | 74% and 73.5 ± 12.3% | 60.03 ± 4.99 | 47.94 ± 3.88 | 37.67 ± 3.65 | 33% and 33.02 ± 4.39% |  |  |  |  |  |  |  |  |  |  |  |
